In patent US9283222B2 (priority 2006, dated 2016):
Like-named read-outs stand apart in the source and are kept apart here.

Columns and labels:
[1] = target: PARP in C41 cells (Homo sapiens (Human), UniProt P09874)
[2] = target: Recombinant Human Poly(ADP-Ribose) Polymerase (PARP), PARP-1 (Homo sapiens (Human), UniProt P09874); details: read-out: PARP-1 (Ki)
[3] = Table 2, A2 is C1-alkyl versus no A2 (bond)
[4] = Table 3, H analogs versus para-F analogs
[5] = Table 3, C41 cells, ratio to comparator EC50
[6] = Table 1, text calls the values EC50s

Chain of PARP in C41 cells (P09874 whole entry): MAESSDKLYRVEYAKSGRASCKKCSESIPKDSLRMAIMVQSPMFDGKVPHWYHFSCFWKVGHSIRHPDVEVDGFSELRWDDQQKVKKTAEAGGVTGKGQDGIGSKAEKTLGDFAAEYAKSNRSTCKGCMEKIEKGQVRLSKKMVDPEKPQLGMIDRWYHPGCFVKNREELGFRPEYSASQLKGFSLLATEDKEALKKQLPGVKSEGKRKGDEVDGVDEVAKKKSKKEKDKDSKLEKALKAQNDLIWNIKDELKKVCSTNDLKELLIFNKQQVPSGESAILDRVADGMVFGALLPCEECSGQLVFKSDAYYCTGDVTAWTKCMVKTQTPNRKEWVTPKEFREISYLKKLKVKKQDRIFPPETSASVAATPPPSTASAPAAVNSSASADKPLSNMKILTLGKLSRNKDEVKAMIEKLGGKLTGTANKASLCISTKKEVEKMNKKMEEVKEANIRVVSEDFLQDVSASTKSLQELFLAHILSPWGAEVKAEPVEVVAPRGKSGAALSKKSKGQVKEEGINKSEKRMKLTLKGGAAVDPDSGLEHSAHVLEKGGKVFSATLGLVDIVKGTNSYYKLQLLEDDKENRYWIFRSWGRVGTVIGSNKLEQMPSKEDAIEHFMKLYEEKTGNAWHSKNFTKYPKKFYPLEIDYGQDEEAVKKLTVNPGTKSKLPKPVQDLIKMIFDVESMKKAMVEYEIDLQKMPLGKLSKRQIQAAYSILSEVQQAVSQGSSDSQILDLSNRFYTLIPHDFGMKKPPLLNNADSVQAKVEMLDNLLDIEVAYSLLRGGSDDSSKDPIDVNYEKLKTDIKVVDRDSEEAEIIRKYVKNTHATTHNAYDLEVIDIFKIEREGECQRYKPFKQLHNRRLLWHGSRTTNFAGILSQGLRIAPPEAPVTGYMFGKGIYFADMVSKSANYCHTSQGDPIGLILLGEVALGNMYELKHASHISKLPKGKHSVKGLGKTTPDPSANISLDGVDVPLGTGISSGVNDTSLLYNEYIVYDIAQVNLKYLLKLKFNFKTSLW
Chain of Recombinant Human Poly(ADP-Ribose) Polymerase (PARP), PARP-1 (P09874 whole entry): as above

SMILES	Ki [2, 4] [nM]	Cell EC50 ratio [1, 5]	further results
O=C1CCN1c1cc(Cc2n[nH]c(=O)c3c2CCCC3)ccc1F			Cell Ratio EC50 ([1]; Table 2, C41 cells, ratio to comparator EC50): 16.4; Ki [2, 3]: 6 nM
NCC(=O)Nc1cc(Cc2n[nH]c(=O)c3c2CCCC3)ccc1F	2.9		Cell EC50 ratio [1]: 5.8
O=C(Nc1cc(Cc2n[nH]c(=O)c3c2CCCC3)ccc1F)C1CNC1	0.7		Cell EC50 ratio [1]: 34.4
O=C1CCC(=O)N1c1cccc(Cc2n[nH]c(=O)c3c2CCCC3)c1	2	1.7	
O=C1CCC(=O)N1c1cc(Cc2n[nH]c(=O)c3c2CCCC3)ccc1F	1.1	0.19	
O=C(CCN1CCCCC1)Nc1cc(Cc2n[nH]c(=O)c3c2CCCC3)ccc1F	18.4		Cell EC50 ratio [1]: 5.6
CN(C)CCN(C)C(=O)c1cccc(Cc2n[nH]c(=O)c3c2CCCC3)c1	13	3	
O=C(c1cc(Cc2n[nH]c(=O)c3c2CCCC3)ccc1F)N1CCN(c2cccnc2)CC1 [Example 756, 4-{4-fluoro-3-[(4-pyridin-3-ylpiperazin-1-yl)carbonyl]benzyl}-5,6,7,8-tetrahydrophthalazin-1(2H)-one]			Ki [2, 6]: 0.9 nM
O=C(c1cc(Cc2n[nH]c(=O)c3c2CCCC3)ccc1F)N1CCN(c2cncnc2)CC1 [Example 757, 4-{4-fluoro-3-[(4-pyrimidin-5-ylpiperazin-1-yl)carbonyl]benzyl}-5,6,7,8-tetrahydrophthalazin-1(2H)-one]			Ki [2, 6]: 1.2 nM
O=C(NC1CCN(C(=O)c2cc(Cc3n[nH]c(=O)c4c3NCCC4)ccc2F)CC1)c1cn[nH]c1 [Example 758, N-(1-{2-fluoro-5-[(5-oxo-1,2,3,4,5,6-hexahydropyrido[2,3-d]pyridazin-8-yl)methyl]benzoyl}piperidin-4-yl)-1H-pyrazole-4-carboxamide]			Ki [2, 6]: 1.4 nM
CN1CCN(C(=O)c2cc(Cc3n[nH]c(=O)c4c3CCCC4)ccc2F)CC1=O [Example 759, 4-{4-fluoro-3-[(4-methyl-3-oxopiperazin-1-yl)carbonyl]benzyl}-5,6,7,8-tetrahydrophthalazin-1(2H)-one]			Ki [2, 6]: 0.3 nM
CCN(CCNC(=O)C1CC1)C(=O)c1cc(Cc2n[nH]c(=O)c3c2CCCC3)ccc1F [Example 761, N-{2-[(cyclopropylcarbonyl)amino]ethyl}-N-ethyl-2-fluoro-5-[(4-oxo-3,4,5,6,7,8-hexahydrophthalazin-1-yl)methyl]benzamide]			Ki [2, 6]: 0.6 nM
CCN(CCNC(=O)c1c(F)cccc1F)C(=O)c1cc(Cc2n[nH]c(=O)c3c2CCCC3)ccc1F [Example 762, N-{2-[(2,6-difluorobenzoyl)amino]ethyl}-N-ethyl-2-fluoro-5-[(4-oxo-3,4,5,6,7,8-hexahydrophthalazin-1-yl)methyl]benzamide]			Ki [2, 6]: 1 nM
CCN(CCNC(=O)c1cccnc1)C(=O)c1cc(Cc2n[nH]c(=O)c3c2CCCC3)ccc1F [Example 763, N-[2-(ethyl{2-fluoro-5-[(4-oxo-3,4,5,6,7,8-hexahydrophthalazin-1-yl)methyl]benzoyl}amino)ethyl]nicotinamide]			Ki [2, 6]: 1 nM
O=C1CCCN1c1cc(Cc2n[nH]c(=O)c3c2CCCC3)ccc1F [drawing 7]			Cell Ratio EC50 [1]: 0.85; Ki [2, 3]: 1.2 nM
O=C1CCCN1c1cc(-c2n[nH]c(=O)c3c2CCCC3)ccc1F [drawing 8]			Ki [2, 3]: 191 nM
NCC(=O)Nc1cccc(Cc2n[nH]c(=O)c3c2CCCC3)c1 [drawing 10]	12	22.5	
O=C(Nc1cccc(Cc2n[nH]c(=O)c3c2CCCC3)c1)C1CNC1 [drawing 12]	6.3		Cell EC50 ratio [1]: 246
COc1ccc(C(=O)CCC(=O)Nc2cccc(Cc3n[nH]c(=O)c4c3CCCC4)c2)cc1 [drawing 14]	1.9	20.9	
COc1ccc(C(=O)CCC(=O)Nc2cc(Cc3n[nH]c(=O)c4c3CCCC4)ccc2F)cc1 [drawing 15]	0.7	2.6	
O=C1CCCN1c1cccc(Cc2n[nH]c(=O)c3c2CCCC3)c1 [drawing 16]	39.6	40.9	
O=C1CCCN1c1cc(Cc2n[nH]c(=O)c3c2CCCC3)ccc1F [drawing 17]	1.2		Cell EC50 ratio [1]: 0.85

SMILES	Ki [2, 4] [nM]	Cell EC50 ratio [1, 5]	further results
O=C(CCCC(=O)Nc1cccc(Cc2n[nH]c(=O)c3c2CCCC3)c1)Nc1ccccc1 [drawing 20]	3.2	3.2	
O=C(CCCC(=O)Nc1cc(Cc2n[nH]c(=O)c3c2CCCC3)ccc1F)Nc1ccccc1 [drawing 21]	0.6	0.34	
Cc1c(C(=O)Nc2cccc(Cc3n[nH]c(=O)c4c3CCCC4)c2)cnn1-c1ccccc1 [drawing 22]	9	14.1	
Cc1c(C(=O)Nc2cc(Cc3n[nH]c(=O)c4c3CCCC4)ccc2F)cnn1-c1ccccc1 [drawing 23]	15.8	17.6	
O=C(CCN1CCCCC1)Nc1cccc(Cc2n[nH]c(=O)c3c2CCCC3)c1 [drawing 24]	280		
O=C(c1cccc(Cc2n[nH]c(=O)c3c2CCCC3)c1)N1CCN(c2ncccn2)CC1 [drawing 26]	0.8	0.93	
O=C(c1cc(Cc2n[nH]c(=O)c3c2CCCC3)ccc1F)N1CCN(c2ncccn2)CC1 [drawing 27]	0.7	0.3	
CC(=O)N1CCN(C(=O)c2cccc(Cc3n[nH]c(=O)c4c3CCCC4)c2)CC1 [drawing 28]	3		Cell EC50 ratio [1]: 6.1
CC(=O)N1CCN(C(=O)c2cc(Cc3n[nH]c(=O)c4c3CCCC4)ccc2F)CC1 [drawing 29]	0.1	2.3	
CCN1CCN(C(=O)c2cccc(Cc3n[nH]c(=O)c4c3CCCC4)c2)CC1 [drawing 30]	10	1.8	
CCN1CCN(C(=O)c2cc(Cc3n[nH]c(=O)c4c3CCCC4)ccc2F)CC1 [drawing 31]	1.8	0.4	
O=C(c1cccc(Cc2n[nH]c(=O)c3c2CCCC3)c1)N1CCN(c2ccccn2)CC1 [drawing 32]	3	1.9	
O=C(c1cc(Cc2n[nH]c(=O)c3c2CCCC3)ccc1F)N1CCN(c2ccccn2)CC1 [drawing 33]	2	0.4	
O=C(c1cccc(Cc2n[nH]c(=O)c3c2CCCC3)c1)N1CCN(c2ccccc2)CC1 [drawing 34]	3	3.2	
O=C(c1cc(Cc2n[nH]c(=O)c3c2CCCC3)ccc1F)N1CCN(c2ccccc2)CC1 [drawing 35]	3	0.9	
O=C(c1cccc(Cc2n[nH]c(=O)c3c2CCCC3)c1)N1CCN(c2ccccc2Cl)CC1 [drawing 36]	10	15	
O=C(c1cc(Cc2n[nH]c(=O)c3c2CCCC3)ccc1F)N1CCN(c2ccccc2Cl)CC1 [drawing 37]	5	6	
O=C(c1cccc(Cc2n[nH]c(=O)c3c2CCCC3)c1)N1CCN(c2ccccc2F)CC1 [drawing 38]	4		
O=C(c1cc(Cc2n[nH]c(=O)c3c2CCCC3)ccc1F)N1CCN(c2ccccc2F)CC1 [drawing 39]	13	1.3	
O=C(c1cccc(Cc2n[nH]c(=O)c3c2CCCC3)c1)N1CCN(c2ccc(F)cc2)CC1 [drawing 40]	6	2.2	
NC(=O)C1CCCN(C(=O)c2cccc(Cc3n[nH]c(=O)c4c3CCCC4)c2)C1 (stereo not drawn) [drawing 44]	19		
